The values below come from patent US20200172473A1, “DUAL MODULATORS OF FARNESOID X RECEPTOR AND SOLUBLE EPOXIDE HYDROLASE” (JOHANN WOLFGANG GOETHE-UNIVERSITÄT FRANKFURT AM MAIN, priority 2017, published 2020).

“Also recorded” adds a separate entry of the source. Where two headings read alike, the source gives them in different places.

The test system of data set [1] is HepG2 cells. Put plainly: WST-1 cytotoxicity assay. It is filed as cell-based. As to conditions: up to 100 μM.
Data set [2] has as its target T1, FXR-LBD (Homo sapiens, UniProt Q96RI1).
T1 sequence (Q96RI1 262-486 limits assumed): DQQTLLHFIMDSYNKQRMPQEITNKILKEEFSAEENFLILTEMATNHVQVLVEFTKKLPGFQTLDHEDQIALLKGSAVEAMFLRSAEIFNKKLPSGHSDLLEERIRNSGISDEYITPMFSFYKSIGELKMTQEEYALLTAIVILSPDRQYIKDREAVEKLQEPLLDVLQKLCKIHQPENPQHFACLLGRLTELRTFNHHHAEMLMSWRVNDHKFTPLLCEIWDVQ
Put plainly: isothermal titration calorimetry (ITC). It is filed as binding. In general terms: ITC needs no label: the signal is the heat of the interaction.

In data set [3] the target is T2, LXRα (Homo sapiens, UniProt Q13133).
T2 construct: pFA-CMV-hLXRα-LBD; expressed in transfected cells; host or cells: HEK293T
T2 sequence (Q13133 209-447 limits assumed): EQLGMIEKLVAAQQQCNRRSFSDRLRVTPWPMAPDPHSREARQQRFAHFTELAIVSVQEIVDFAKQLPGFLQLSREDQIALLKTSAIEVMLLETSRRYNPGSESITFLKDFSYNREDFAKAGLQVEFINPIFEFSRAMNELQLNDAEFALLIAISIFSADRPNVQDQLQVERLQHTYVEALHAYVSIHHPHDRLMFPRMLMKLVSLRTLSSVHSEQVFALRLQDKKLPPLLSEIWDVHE
Put plainly: Gal4-hybrid reporter gene assay LXRα in HEK293T cells. As to conditions: 10 μM; printed as both LXR subtypes. It is filed as cell-based. An excerpt:
Hybrid reporter gene assays for PPARα/γ/δ, LXRα/β, RXRα/β/γ, RARα/β/γ, VDR and PXR Plasmids: The Gal4-fusion receptor plasmids pFA-CMV-hPPARα-LBD^52, pFA-CMV-hPPARγ-LBD^52, pFA-CMV-hPPARδ-LBD^52, pFA-CMV-hLXRα-LBD^32 and pFA-CMV-hLXRβ-LBD^32 have been reported previously. […] Frame and sequence of all fusion receptors were verified by sequencing. pFR-Luc (Stratagene) was used as reporter plasmid and pRL-SV40 (Promega) for normalization of transfection efficiency and cell growth.
Assay procedure: HEK293T cells were grown in DMEM high glucose, supplemented with 10% FCS, sodium pyruvate (1 mM), penicillin (100 U/mL) and streptomycin (100 μg/mL) at 37° C. and 5% CO2. The day before transfection, HEK293T cells were seeded in 96-well plates (2.5·10^4 cells/well). Before transfection, medium was changed to Opti-MEM without supplements. Transient transfection was carried out using Lipofectamine LTX reagent (Invitrogen) according to the manufacturer's protocol with pFR-Luc (Stratagene), pRL-SV40 (Promega) and pFA-CMV-hRXRα-LBD. 5 h after transfection, medium was changed to Opti-MEM supplemented with penicillin (100 U/mL), streptomycin (100 μg/mL), now additionally containing 0.1% DMSO and the respective test compound or 0.1% DMSO alone as untreated control. […] Luminescence was measured with an Infinite M200 luminometer (Tecan Deutschland GmbH). […]
On the technique in general: Reporter assays use an easily measured gene product as a stand-in for the process of interest.

A short description of data set [4]: in vivo pharmacokinetic evaluation in mice. The arrangement: species or system mouse. As to conditions: single dose p.o. 10 mg/kg body weight. The protocol: Three additional animals served as vehicle control.
Food and water were available ad libitum.
A part of the blood was centrifuged (6000 rpm, 10 min, +4° C.) to obtain plasma for quantification of EET/DHET ratio and stored at −80° C. until further evaluation. For liver collection, mice were sacrificed by cervical dislocation after the last blood sampling (8 h post dose). Complete liver was immediately snap-frozen and stored at −80° C. until further evaluation. Plasma and liver were equally obtained from three control mice which received oral application of the vehicle (1% HPMC/Tween 80 (99:1)).

In data set [5] the test system is FXR target genes. The procedure: Data was analyzed according to the 2^ΔΔCt method and all results were normalized to the values of the house-keeping gene glycerinaldehyde 3-phosphate dehydrogenase (GAPDH). Gene expression of vehicle treated control cells was defined as 100%.
Two micrograms of total RNA were extracted from HepG2 cells by the Total RNA Mini Kit (R6834-02, Omega Bio-Tek, Inc., Norcross, Ga., USA). […] FXR target gene expression was evaluated by quantitative real time PCR analysis with a StepOnePlus™ System (Life Technologies, Carlsbad, Calif., USA) using PowerSYBRGreen (Life Technologies; 12.5 μL per well). The primers are listed in the supporting information. Each sample was set up in duplicates and repeated in at least three independent experiments. The expression was quantified by the comparative ΔΔCt method and glycerinaldehyde 3-phosphate dehydrogenase (GAPDH) served as reference gene.

What is called Kd is the concentration at which binding is half-saturated. By Cmax is commonly meant the peak of the concentration-time curve. Consider `CC(C)(C)c1ccc(C(=O)NCc2ccc(NS(C)(=O)=O)cc2Cl)cc1` [compound 57, 4-(tert-Butyl)-N-(2-chloro-4-(methylsulfonamido)benzyl)benzamide], for which the “cytotoxicity in WST-1 assay” value in data set [1] is “no cytotoxic activity; also recorded: no cytotoxicity”. In addition, in data set [2], the affinity, expressed as Kd, was 0.13 µM; the “ΔH (ITC)” value is -19.5 kcal/mol; the “ΔS (ITC)” value is reported as −34.0 cal/mol·K. Also, the “activity on LXRα” value in data set [3] is “inactive”. In data set [4], this compound came in with a Cmax of 1182 ng/mL, a t1/2 of 42 min and a tmax of 30 min. Also, in data set [5] (HepG2, 0.1 μM, 8 or 16 h), the “BSEP mRNA expression compared to vehicle set as 100%” value stood at 216±18%, the “FABP1 mRNA expression compared to vehicle set as 100%” value is 183±34%, the “FAS mRNA expression compared to vehicle set as 100%” value came out at 22±8% and the “FGF19 mRNA expression compared to vehicle set as 100%” value is 309±101%. In data set [5] (HepG2, 0.1 μM, 8 or 16 h), the “PDK4 mRNA expression compared to vehicle set as 100%” value is reported as 255±54%, the “PPARα mRNA expression compared to vehicle set as 100%” value was 170±11%, the “SHP mRNA expression compared to vehicle set as 100%” value stood at 242±61% and the “SREBP1c mRNA expression compared to vehicle set as 100%” value worked out at 49±17%. Besides, in data set [5] (HepG2, 1 μM, 8 or 16 h), the “BSEP mRNA expression compared to vehicle set as 100%” value is recorded as 222±20%, the “FABP1 mRNA expression compared to vehicle set as 100%” value is 194±42%, the “FGF19 mRNA expression compared to vehicle set as 100%” value amounted to 325±77% and the “PDK4 mRNA expression compared to vehicle set as 100%” value is 226±57%. Besides, in data set [5] (HepG2, 1 μM, 8 or 16 h), the “PPARα mRNA expression compared to vehicle set as 100%” value turned out to be 211±10% and the “SHP mRNA expression compared to vehicle set as 100%” value is listed as 317±78%. Moreover, the “amplitude of induction of SHP, PPARα, FGF19, PDK4 and FABP1 relative to CDCA (1b)” value in data set [5] (HepG2, % of CDCA (1b) at 50 μM) was 50-80%.
